# B1: Cre: recombinant Cre recombinase (38 kDa), unconjugated control (protein, UniProt P06956 1-343, looked up)
# Recombinase cre: MSNLLTVHQNLPALPVDATSDEVRKNLMDMFRDRQAFSEHTWKMLLSVCRSWAAWCKLNNRKWFPAEPEDVRDYLLYLQARGLAVKTIQQHLGQLNMLHRRSGLPRPSDSNAVSLVMRRIRKENVDAGERAKQALAFERTDFDQVRSLMENSDRCQDIRNLAFLGIAYNTLLRIAEIARIRVKDISRTDGGRMLIHIGRTKTLVSTAGVEKALSLGVTKLVERWISVSGVADDPNNYLFCRVRKNGVAAPSATSQLSTRALEGIFEATHRLIYGAKDDSGQRYLAWSGHSARVGAARDMARAGVSIPEIMQAGGWTNVNIVMNYIRNLDSETGAMVRLLEDGD
# B2: 16: Cre recombinase (38 kDa) conjugated with 8 (conjugate, UniProt P06956 1-343, looked up)
# Recombinase cre: B1 Recombinase cre
# modifications: conjugated to ε-poly-α-lysine polymer 8
# How the values were obtained:
# HeLa cells = conditions: cited from earlier work
# Excerpt: page 5: Response to reviewers … Reviewer #1: Thank you so much for your valuable comments concerning our original manuscript. Your comment #1: The manuscript is well prepared and written except for the cytotoxicity of these polycationic isopeptides. […] However, we did n ...
# peptidases/proteinases = conditions: due to isopeptide-bond linkages; cited from earlier work
# Excerpt: In this context, a bacterium-origin polycationic polymer, ε-PαL (1) (Fig. 1a), has garnered increasing interest in recent years as an alternative to canonical cationic CPPs. […] However, the cati ... || Practical intracellular delivery of biological macromolecules (biopharmaceuticals) would dramatically transform therapeutic approaches and foster experimental breakthroughs because numerous potential drug targets (cytokines, growth factors, and signal transduction proteins) are in the cell interior[44]. CPPs are among the most promising strategies, and CPP-driven technology currently revolves around natural and synthetic eupeptides. Poly-L/D-arginine[13]–[15], poly-L-histidine[45], and poly-L/D-lysine[46], which were chemically or genetically produced, have been used as CPPs. To enable the del ...
# [1] = cited from earlier work
# Excerpt: To address the growing worldwide demand for CPPs, structurally and functionally distinct CPPs are required to circumvent the canonical CPP drawbacks such as cytotoxicity. This study, therefore, focused on the cytotoxicities of ε-PαL (1) against mammalian cells, while the nontoxicity of 1 in vivo has also been reported so that ε-PαL is used as a natural food preservative in several countries[1],[42]. However, the in vitro cytotoxicity of 1 in other cell lines has remained unclear. We therefore performed the MTT cell viability assay with 1 in K562, HepG2, and HEK293T cells in addition to HeLa ce ...
# [2] = cited from earlier work; remark: listed apart in the source
# Excerpt: (§1) In this context, a bacterium-origin polycationic polymer, ε-PαL (1) (Fig. 1a), has garnered increasing interest in recent years as an alternative to canonical cationic CPPs. […] However, the cati ...
# mammalian cells = conditions: cited from earlier work
# Excerpt: as §1
# [3] = system: Cre/loxP recombination in HEK293T cells; assay: Cre/loxP recombination by intracellularly delivered Cre (reporter plasmid pmKO_loxP_mAG); type: cell-based, human; conditions: HEK293T transfected with pmKO_loxP_mAG; 50 μM, 60 min, 37°C, then 24 h culture; microscopy; mean ± s.d. (n = 3)
# Excerpt: The synthetic DNA fragment carrying two loxP sequences, one TGA stop codon, and the ampicillin resistance gene (Amp^r gene) (Supplementary Table 30) was ligated with pmKO1-MC1 digested by Bam HI and Eco RI. The resulting plasmid, pmKO_loxP, was digested with Eco RI and Hind III and ligated with the mAG gene fragment amplified by the PCR primers (pmKO1_mAG-F and pmKO1_mAG-R, Supplementary Table 29) to yield the Cre activity reporter plasmid (pmKO_loxP_mAG).
# HEK293T cells were transfected with the plasmid pmKO_loxP_mAG using FuGENE Transfection (Promega) according to the manufacturer’s specifications. The cells were washed with DMEM medium and then treated with 50 µM of ε-PαL-Cre (16) at 37 °C for 60 min. The cells were then washed with PBS, followed by 100 µg ml^−1 heparin in PBS, and then two more times with PBS. Finally, fresh DMEM containing 10% FBS was added and incubated at 37 °C for 24 h to express a fluorescent protein. The live-cell imaging was captured by fluorescence microscopy (Leica DMi8).
Molecule,Proteolytic resistance (peptidases/proteinases),Gene recombination ratio (green cells) [3],also measured
ε-oligo-L-β-lysine [Compound 2],resistant to peptidases/proteinases,–,Cytotoxicity in HeLa cells (HeLa cells): no cytotoxicity
ε-poly-L-α-lysine [Compound 1],proteolytic resistance,–,Toxicity in vivo [1]: nontoxicity; Antimicrobial activities [2]: potent; Cytotoxicity (mammalian cells): nondetectable levels
B1,–,6.8% ± 0.1%,–
B2,–,65.6% ± 2.7%,–
